Data reported in patent publication US6620828B2, “Thiazole compounds and pharmaceutical compositions for inhibiting protein kinases and methods for their use” (Agouron Pharmaceuticals, Inc., priority 1999, dated 2003).

Tests used:
Assay type in all cases: biochemical
CDK4/Cyclin D3 complex = molecular target: T1, CDK4/Cyclin D3 complex (Homo sapiens, UniProt P11802); assay: CDK4/Cyclin D assay; conditions: 1.0 μM; combinatorial library compounds
T1 construct: made in house; host or cells: insect cells co-infected with baculovirus vectors
T1 sequence (P11802 whole entry): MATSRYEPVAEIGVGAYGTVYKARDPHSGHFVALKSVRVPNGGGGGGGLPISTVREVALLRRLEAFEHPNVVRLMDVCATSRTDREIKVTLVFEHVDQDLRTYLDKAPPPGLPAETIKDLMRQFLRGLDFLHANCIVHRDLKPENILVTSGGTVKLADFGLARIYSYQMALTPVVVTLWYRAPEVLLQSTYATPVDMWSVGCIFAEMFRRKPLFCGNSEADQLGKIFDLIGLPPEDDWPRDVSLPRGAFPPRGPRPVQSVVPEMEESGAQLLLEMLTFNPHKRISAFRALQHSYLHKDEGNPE
T1 sequence (P30281 whole entry partner): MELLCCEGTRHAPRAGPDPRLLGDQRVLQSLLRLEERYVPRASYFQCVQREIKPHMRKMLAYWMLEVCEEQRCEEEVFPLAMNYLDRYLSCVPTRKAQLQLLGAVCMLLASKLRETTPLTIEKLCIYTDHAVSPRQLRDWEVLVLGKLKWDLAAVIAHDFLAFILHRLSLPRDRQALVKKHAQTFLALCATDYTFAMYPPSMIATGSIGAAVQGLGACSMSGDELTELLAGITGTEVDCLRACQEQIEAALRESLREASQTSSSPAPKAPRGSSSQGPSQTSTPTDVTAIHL
Procedure, shortened: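 Insect-cell-expressed CDK4/cyclin D3 (50 nM) phosphorylating His-tagged Rb fragment (residues 386-928) with 25 μM [^32P]ATP in HEPES pH 7.4, MgCl2, 2% DMSO; 20 min at 30 °C, EDTA stop. Filter-captured 32P by phosphorimager; apparent Ki from competitive or tight-binding inhibition fits.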

CDK2/Cyclin A complex = CDK2/Cyclin A complex (Homo sapiens, UniProt P24941); assay: CDK2/Cyclin A assay; conditions: 1.0 μM; combinatorial library compounds
Procedure, shortened: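 Radiometric assay: 150 nM CDK2/cyclin A (insect-cell CDK2, truncated cyclin A) phosphorylates His-tagged Rb fragment (residues 386-928) with 25 μM ATP plus [32P]ATP, pH 7.4 HEPES, 2% DMSO, 30 °C for 20 min. Filter-captured product counted by phosphorimager; apparent Ki from competitive or tight-binding inhibition fits.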

[1] = molecular target: T2, phosphorylated VEGF-R2Δ50 (FLVK-P) (Homo sapiens, UniProt P35968, DEL940-989/E990V); assay: VEGF-R2 coupled spectrophotometric (FLVK-P) assay; conditions: read-out: VEGF % inhibition at 20 μM, 20 μM; combinatorial library compounds
T2 construct: VEGF-R2Δ50 contains residues 806-939 and 990-1171; made in house; host or cells: baculovirus/insect cells
T2 sequence (P35968 with tags, fused parts or gaps DEL940-989/E990V limits assumed): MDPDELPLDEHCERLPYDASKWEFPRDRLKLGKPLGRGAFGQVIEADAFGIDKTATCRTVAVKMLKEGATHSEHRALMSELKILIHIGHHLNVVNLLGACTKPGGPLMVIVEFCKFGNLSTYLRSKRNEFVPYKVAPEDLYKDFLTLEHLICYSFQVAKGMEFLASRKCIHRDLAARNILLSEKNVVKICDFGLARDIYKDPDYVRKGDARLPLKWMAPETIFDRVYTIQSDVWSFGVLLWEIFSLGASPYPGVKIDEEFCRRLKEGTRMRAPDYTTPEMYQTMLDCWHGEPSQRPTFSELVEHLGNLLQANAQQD
Procedure, shortened: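 Baculovirus-expressed human VEGF-R2Δ50 (residues 806-939/990-1171, E990V) was autophosphorylated with 3 mM ATP, 40 mM MgCl2 for 2 h at 4° C. ADP formation was coupled via PK/LDH to NADH oxidation, read at 340 nm, with 5.1 mM poly(E4Y1), 1 mM ATP, 25 mM MgCl2, Hepes pH 7.5. Ki came from activity across compound concentrations.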

FL-CHK1 = molecular target: T3, FL-CHK1 (Homo sapiens, UniProt O14757); assay: CHK1 assay; conditions: 20 μM; combinatorial library compounds
T3 construct: C-terminally His-tagged full-length human CHK1 (FL-CHK1); 6xHis (C); made in house; host or cells: baculovirus/insect cells
T3 sequence (O14757 1-476): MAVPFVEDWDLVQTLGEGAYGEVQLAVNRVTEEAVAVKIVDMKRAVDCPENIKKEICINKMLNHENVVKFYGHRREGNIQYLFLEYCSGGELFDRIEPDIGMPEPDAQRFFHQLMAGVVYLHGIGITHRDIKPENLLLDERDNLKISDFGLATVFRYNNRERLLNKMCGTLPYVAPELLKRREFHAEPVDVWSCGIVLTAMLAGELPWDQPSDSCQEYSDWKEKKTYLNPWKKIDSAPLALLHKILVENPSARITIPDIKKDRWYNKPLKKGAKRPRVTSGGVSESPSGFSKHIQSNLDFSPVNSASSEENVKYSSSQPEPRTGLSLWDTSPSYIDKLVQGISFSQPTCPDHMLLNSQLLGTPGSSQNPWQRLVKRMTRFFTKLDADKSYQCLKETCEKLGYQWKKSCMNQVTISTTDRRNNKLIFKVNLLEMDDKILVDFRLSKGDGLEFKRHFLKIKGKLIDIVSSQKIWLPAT
Procedure, shortened: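 Full-length human CHK1 with C-terminal 6×His tag, made in baculovirus/insect cells, 10 nM, phosphorylating 0.125 mM Syntide-2 with 0.15 mM ATP in 50 mM Tris pH 7.5, 25 mM MgCl2, 400 mM NaCl. PK/LDH-coupled NADH oxidation read at 340 nm. Ki from initial rates over varied compound concentrations.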

Row | Structure (SMILES) | inhibition at 1 µM (CDK4/Cyclin D3 complex) [%] | inhibition at 1 µM (CDK2/Cyclin A complex) [%] | inhibition at 20 µM [1] [%] | inhibition at 20 µM (FL-CHK1) [%]
1 | Cc1cc(-c2csc(-c3sc(Nc4ccc(S(N)(=O)=O)cc4)nc3N)n2)cs1 | 59.6 | 68.2 | 34 | 26.6
2 | CC1(C)CCC(C)(C)c2cc(-c3csc(-c4sc(Nc5ccc(S(N)(=O)=O)cc5)nc4N)n3)ccc21 | 31.8 | 35.9 | -2 | 13.1
3 | Nc1nc(Nc2ccc(S(N)(=O)=O)cc2)sc1-c1nc(-c2ccc(C(F)(F)F)cc2)cs1 | -3.6 | 4.5 | 2 | 4.2
4 | Nc1nc(Nc2ccc(S(N)(=O)=O)cc2)sc1-c1nc(-c2ccc3c(c2)CCC(=O)N3)cs1 | 42.2 | 56.6 | 7 | 15.3
5 | Nc1nc(Nc2ccc(S(N)(=O)=O)cc2)sc1-c1nc(-c2ccccc2OC(=O)c2ccccc2)cs1 | 2.3 | 29 | 9 | -1.6
6 | CCc1cc2c(cc1-c1csc(-c3sc(Nc4ccc(S(N)(=O)=O)cc4)nc3N)n1)C(C)(C)CCC2(C)C | -3.5 | 14.1 | -2 | 1.3
7 | COc1ccc2nc(-c3ccccc3)c(-c3csc(-c4sc(Nc5ccc(S(N)(=O)=O)cc5)nc4N)n3)cc2c1 | 53.4 | 61.4 | 3 | 9.7
8 | Cc1c(-c2csc(-c3sc(Nc4ccc(S(N)(=O)=O)cc4)nc3N)n2)sc2ccccc12 | -0.3 | 9.2 | 3 | 5.6
9 | CC(C)(C)c1cc(-c2csc(-c3sc(Nc4ccc(S(N)(=O)=O)cc4)nc3N)n2)cc(C(C)(C)C)c1O | 17 | 25 | -9 | 17.5
10 | CC(C)c1ccc(Nc2nc(N)c(-c3nc(-c4cc(Br)c(Cl)s4)cs3)s2)cc1 | 84.7 | 26 | 25 | 9.2
11 | COc1cccc(-c2csc(-c3sc(Nc4ccc(C(C)C)cc4)nc3N)n2)c1 | 49.3 | 16 | 10 | 3.8
12 | CCOC(=O)c1ccccc1-c1csc(-c2sc(Nc3ccc(C(C)C)cc3)nc2N)n1 | 81.6 | 29.2 | 26 | 26
13 | Cc1c(C)c(C)c(-c2csc(-c3sc(Nc4ccc(C(C)C)cc4)nc3N)n2)c(C)c1C | 84.7 | 39.9 | 59 | 34.9
14 | CC(C)c1ccc(Nc2nc(N)c(-c3nc(-c4cc(-c5ccccc5)no4)cs3)s2)cc1 | 50.4 | 2.4 | 13 | -4.7
15 | Cc1c(F)cc(-c2csc(-c3sc(Nc4ccc(C(C)C)cc4)nc3N)n2)cc1Cl | 88.6 | 28.2 | 18 | 22.8
16 | CC(C)c1ccc(Nc2nc(N)c(-c3nc(-c4cc(-c5ccc(Cl)c(Cl)c5)no4)cs3)s2)cc1 | -26.5 | 18.5 | -5 | -9
17 | CCCCCc1ccc(-c2csc(-c3sc(Nc4ccc(C(C)C)cc4)nc3N)n2)cc1 | 10.3 | 3.6 | -14 | 0.7
18 | CC(=O)Oc1ccccc1-c1csc(-c2sc(Nc3ccc(C(C)C)cc3)nc2N)n1 | 44.3 | 6.6 | 14 | -12.8
19 | CC(C)c1ccc(Nc2nc(N)c(-c3nc(-c4c(Cl)cc(C(F)(F)F)cc4Cl)cs3)s2)cc1 | 86.2 | 26 | 31 | 14.8
